From patent US5331094A, “Purified active somatostatin receptor” (American Cyanamid Company, priority 1992, dated 1994)
Bridge positions count the residues as written; N and C are the ends. Square brackets hold non-standard residues; d marks the D form. Peptide text beside a SMILES is read from it. * marks the point of attachment. Biotin = O=C1N[C@H]2[C@H](CS[C@H]2CCCCC(=O)*)N1; Tyr(3-I) = N[C@@H](Cc1ccc(O)c(I)c1)C(=O)O; Ahx = NCCCCCC(=O)O

Tests used:
SRIF receptor [1] = assay: Binding of [125I]Bio-SRIF analogs to GH4 C1 membranes (CPM bound); parameters: species or system rat; conditions: for CPM bound/mg membrane protein (total): after the binding step; for CPM bound/mg membrane protein (non-specific): in the presence of 1 uM cold S14
Method: 3. Chemical cross-linking of radioligand with receptor is done after a binding step identical to the standard assay. However, the wash step is done with binding buffer minus BSA to reduce the possibility of non-specific cross-linking of radioligand with BSA. The cross-linking step is carried out as described below.
(§1) To compare the three biotinyl-SRIF analogs in terms of binding to streptavidin, the following experiment is done. [^125 I]Bio-SRIF analogs are bound to GH4 C1 membranes as described ("Methods: Receptor Binding Methods, 3"). All radioligands are at a concentration of […] cpm/ml. For each radioligand, a control for non-specific binding was done in the presence of 1 uM cold S14. CPM bound/mg membrane protein after the binding step are as follows: [^125 I]Bio-6C-S14=755,020 (total) and 43,361 (non-specific); [^125 I]Bio-12C=S14=633,134 (total) and 39,538 (nonspecific); [^125 I]Bio-S28=1,065,512 (total) and 35,049 (nonspecific). The membrane pellets are solubilized in solubilization buffer containing 0.15% deoxycholate:lysolecithin and 0.2 mM MgCl2 as described ("Methods: Membrane Solubilization"). […] One ml samples of solubilized membranes are incubated with 0.05 ml vols of streptavidin-agarose at 4°-10° C. on a tube rotator for the times shown. Non-specific binding samples are not done due to the low levels of non-specific binding. At the times shown, the […] beads are spun down and 100 ul samples of supernatant are counted. The cpm are compared to initial cpm in the sample and % binding to SA is calculated from this. Also, it should be noted that binding of cpm from the supernatant is considered to parallel the binding of R:L complex. Several observations confirm that this is a valid assumption.

SRIF receptor [2] = assay: Scatchard analysis of binding of [125I]-labelled SRIF analogs to GH4 C1 membranes; parameters: species or system rat; conditions: GH4 C1 membranes (FIG. 2), read-out: dissociation constant (KD)
Method: 1. Standard Binding Assays--Binding assays are done in a binding buffer containing 50 mM HEPES (pH 7.4), 0.5% BSA and 5 mM MgCl2. The standard assay for [^125 I]SRIF analog binding to GH4 C1 membranes, done in 96 well microtiter plates (Dynataech Immulon II Removawell plates), is carried out as follows: 1. Radioligand is diluted in binding buffer+ PMSF/Baci to the desired cpm per vol. of 50 μl and then 50 μl aliquots are added to the wells. For non-specific binding samples, 5 μl of 40 μM cold S14 is also added per well. 2. Binding is initiated by adding 150 μl per well of membrane diluted to the desired concentration (10-30 ug membrane protein/well) in binding buffer+ PMSF/Baci. Plates are then covered with Linbro mylar plate sealers (Flow Labs) and placed on a Dynatech Microshaker II and binding is allowed to proceed at room temperature for 1-2 hours. Binding is stopped by centrifuging the plate for 15 minutes at 2,000×g. The supernatants are dumped off and membrane pellets washed once by addition of 200 μl of ice cold binding buffer, brief shaking and recentrifugation. Finally the individual wells are placed in 12×75 mm tubes and counted in an LKB Gammamaster counter (78% efficiency). Specific binding by this method is identical to that measured when free ligand is removed by rapid (3-5 seconds) filtration and washing on polyethyleneimine-coated glass fiber filters.
Because Bio-C6-S14, Bio-C12-S14 and Bio-S28 all contain tyrosine residues, it is possible to prepare their [^125 I] labelled analogs and carry out Scatchard analyses of their binding affinities relative to [^125 I]Tyr11-S14 (FIG. 2). As shown in the figure, the [^125 I]-labelled peptides fall in the same order of potency as their non-labelled forms. The dissociation constants (KDs) and relative binding affinities are [^125 I]Tyr11-S14 (0.1 nM)>[^125 I]Bio-S28 (0.2 nM)>[^125I]Bio-6C-S14 (0.3 nM)>[^125 I]Bio-12C-S14 (0.4 nM).

Immobilized Streptavidin [3] = biological target: T1, Immobilized Streptavidin (Streptomyces avidinii, UniProt P22629); assay: Binding of [125I]-labelled biotinyl-SRIFs (solubilized R:L complex) to immobilized streptavidin; conditions: for Initial CPM: 100 ul of initial 100,000 x g supernatant containing soluble R:L complex; for CPM (non-bound), 1 hour: 100 ul supernatant after 1 hour incubation with SA-agarose; for CPM (non-bound), 1 hour / CPM (non-bound), 3 hours: 4-10 C; for CPM (non-bound), 3 hours: 100 ul supernatant after 3 hours incubation with SA-agarose; for % Binding of Radioligand to SA-Agarose, 1 hour, % Bound: 1 hour incubation with SA-agarose; for % Binding of Radioligand to SA-Agarose, 3 hours, % Bound: 3 hours incubation with SA-agarose
T1 construct: purchased Pierce Chemical Co
Method: as §1

SRIF receptor [4] = conditions: pituitary cells; Kirk et al. 1984; cited from earlier work
SRIF receptor [5] = assay: Tracing of SRIF R:L complex with [125I]Bio-S28: membrane binding and deoxycholate:lysolecithin solubilization; parameters: species or system rat
Method: 1. Binding of biotinyl-SRIF to GH4 C1 membranes. The binding step is carried out as described in Section 4 of "Receptor Binding Methods". Incubations are for 1 hour at room temperature. In the standard purification protocol, the binding incubations contain 10 nM Bio-S29/ [^125 I]Bio-S28 is added as a tracer at levels of 5,000-100,000 cpm per mg of membrane protein. Control incubations contain 10 uM cold S14 to saturate the receptor with non-biotinylated ligand.
2. Solubilization of receptor:ligand complex. This is done as described ("Membrane Solubilization"), with 0.15% deoxycholate:lysolecithin in solubilization buffer containing 0.2 mM MgCl2, to obtain 100,000×g supernatants containing solubilized R:L complex.
(§2) A preparation of SRIF receptor is purified from 17 mg GH4 C1 pituitary cell membranes as described in "Methods: Receptor Purification". Some important features of this experiment are as follows: Two 17 mg samples of membranes are used. Both are incubated with 10^-8 M Bio-S28. However, one sample also receives 10^-5 M non-biotinyl S14 for 2-3 minutes before addition of any Bio-S28. This serves to block binding of Bio-S28 and creates a control to show non-specific binding of proteins to the streptavidin column. Also, each sample receives 1.5×10^8 cpm of [^125 I]Bio-S28 as a tracer. This is added 2-3 minutes before the addition of cold Bio-S28. After a 1-hour binding step, the membranes are washed in binding buffer without BSA and solubilized in solubilization buffer containing 0.15% deoxycholate:lysolecithin and 0.2 mM MgCl2. Each 100,000×g supernatant (17 ml) is incubated with 0.6 ml of streptavidin-agarose for 4 hours at 4°-10° C. The SA-agarose is transferred to a 0.7 cm diameter column, washed and eluted with EDTA/EGTA/GTP-gamma-S as described ("Methods: Receptor Purification").
(§3) Radioligand is followed through the procedure to estimate solubilization of R:L complex and % initial binding of R:L complex to immobilized streptavidin.

Immobilized Streptavidin [6] = biological target: T1, Immobilized Streptavidin; assay: Tracing of SRIF R:L complex with [125I]Bio-S28: adsorption to streptavidin-agarose during purification; type: binding
Method: 3. Adsorption of solubilized R:L complex to streptavidin. Immobilized streptavidin (streptavidin cross-linked to 6% beaded agarose, Pierce Chemical Co.; "SA-agarose") is washed in solubilization buffer and added to the solubilized membranes as 1/30 of the final volume. This mixture is incubated with constant stirring by end-over-end rotation for 4-5 hours at 4°-10° C. Then the mixture is applied to a column and the non-bound material is washed through. Binding of radioligand to SA-agarose is determined by comparing cpm in the 100,000×g supernatant with that in the column effluent after adsorption to SA-agarose. Finally, the column is washed with 12-15 column volumes of solubilization buffer+0.15% deoxycholate:lysolecithin +1/500 (vol/vol) 100×4pase.
as §2, §3
As discussed above, this should approximate the binding of R:L complex to streptavidin.

[7] = 10^-8 M Bio-S28 + 10^-5 M S14 (NSB)

T1 sequence (P22629 25-183): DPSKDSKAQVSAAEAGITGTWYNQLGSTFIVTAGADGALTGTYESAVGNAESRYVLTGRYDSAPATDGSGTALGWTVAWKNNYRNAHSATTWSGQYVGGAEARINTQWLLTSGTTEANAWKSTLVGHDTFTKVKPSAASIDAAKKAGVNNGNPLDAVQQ

| Compound | CPM bound/mg membrane protein (total) (SRIF receptor [1]) | CPM bound/mg membrane protein (non-specific) (SRIF receptor [1]) | Kd (SRIF receptor [2]) | Initial CPM (Immobilized Streptavidin [3]) | CPM (non-bound), 1 hour (Immobilized Streptavidin [3]) | CPM (non-bound), 3 hours (Immobilized Streptavidin [3]) | % Binding of Radioligand to SA-Agarose, 1 hour, % Bound (Immobilized Streptavidin [3]) | % Binding of Radioligand to SA-Agarose, 3 hours, % Bound (Immobilized Streptavidin [3]) | decrease of binding of [125I]Tyr1-SRIF (SRIF receptor [4]) | CPM Solubilized by Deoxycholate:Lysolecithin (%) (SRIF receptor [5]; 10^-8 M Bio-S28) | CPM Initially Bound to Membranes (SRIF receptor [5]; [7]) | CPM Solubilized by Deoxycholate:Lysolecithin (%) (SRIF receptor [5]; [7]) | CPM Initially Bound to Membranes (SRIF receptor [5]; ligand in binding step 10^-8 M Bio-S28) | Solubilized CPM Non-Bound to Streptavidin (%) (Immobilized Streptavidin [6]; 10^-8 M Bio-S28) | Solubilized CPM Non-Bound to Streptavidin (%) (Immobilized Streptavidin [6]; [7]) | specifically bound radioligand bound to streptavidin (Immobilized Streptavidin [6]; calculation from Table 2) |
| --- | --- | --- | --- | --- | --- | --- | --- | --- | --- | --- | --- | --- | --- | --- | --- | --- |
| C[C@H](NC(=O)CCCCCNC(=O)CCCCCNC(=O)CCCC[C@@H]1SC[C@@H]2NC(=O)N[C@@H]21)C(=O)NCC(=O)N[C@H]1CSSC[C@@H](C(=O)O)NC(=O)[C@H](CO)NC(=O)[C@H]([C@@H](C)O)NC(=O)[C@H](Cc2ccc(O)c(I)c2)NC(=O)[C@H]([C@@H](C)O)NC(=O)[C@H](CCCCN)NC(=O)[C@H](Cc2c[nH]c3ccccc23)NC(=O)[C@H](Cc2ccccc2)NC(=O)[C@H](Cc2ccccc2)NC(=O)[C@H](CC(N)=O)NC(=O)[C@H](CCCCN)NC1=O [[^125 I]Bio-12C-S14] ({Biotin-Ahx-Ahx}-AGCKNFFWKT[Tyr(3-I)]TSC-OH; disulfide 3-14 (inferred); C-terminus assumed) | 633,134 CPM bound/mg membrane protein | 39,538 CPM bound/mg membrane protein | 0.4 nM | 54,344 CPM | 23,391 CPM | 13,071 CPM | 57% | 76% |  |  |  |  |  |  |  |  |
| pertussis toxin |  |  |  |  |  |  |  |  | more than 95% |  |  |  |  |  |  |  |
| CC(C)C[C@H](NC(=O)[C@H](C)NC(=O)[C@@H]1CCCN1C(=O)[C@H](CC(N)=O)NC(=O)[C@H](CO)NC(=O)[C@H](CC(N)=O)NC(=O)[C@H](C)NC(=O)[C@H](CO)NC(=O)CCCC[C@@H]1SC[C@@H]2NC(=O)N[C@@H]21)C(=O)N[C@@H](C)C(=O)N1CCC[C@H]1C(=O)N[C@@H](CCCNC(=N)N)C(=O)N[C@@H](CCC(=O)O)C(=O)N[C@@H](CCCNC(=N)N)C(=O)N[C@@H](CCCCN)C(=O)N[C@@H](C)C(=O)NCC(=O)N[C@H]1CSSC[C@@H](C(=O)O)NC(=O)[C@H](CO)NC(=O)[C@H]([C@@H](C)O)NC(=O)[C@H](Cc2ccc(O)c(I)c2)NC(=O)[C@H]([C@@H](C)O)NC(=O)[C@H](CCCCN)NC(=O)[C@@H](Cc2c[nH]c3ccccc23)NC(=O)[C@H](Cc2ccccc2)NC(=O)[C@H](Cc2ccccc2)NC(=O)[C@H](CC(N)=O)NC(=O)[C@H](CCCCN)NC1=O [[^125 I]Bio-S28] (Biotin-SANSNPALAPRERKAGCKNFF[dW]KT[Tyr(3-I)]TSC-OH; disulfide 17-28) | 1,065,512 CPM bound/mg membrane protein | 35,049 CPM bound/mg membrane protein | 0.2 nM | 92,534 CPM | 31,645 CPM | 17,098 CPM | 66% | 82% |  | 91% | 9,316 CPM | 73% | 59,132 CPM | 28% | 15% | 72% |
| C[C@H](NC(=O)CCCCCNC(=O)CCCC[C@@H]1SC[C@@H]2NC(=O)N[C@@H]21)C(=O)NCC(=O)N[C@H]1CSSC[C@@H](C(=O)O)NC(=O)[C@H](CO)NC(=O)[C@H]([C@@H](C)O)NC(=O)[C@H](Cc2ccc(O)c(I)c2)NC(=O)[C@H]([C@@H](C)O)NC(=O)[C@H](CCCCN)NC(=O)[C@H](Cc2c[nH]c3ccccc23)NC(=O)[C@H](Cc2ccccc2)NC(=O)[C@H](Cc2ccccc2)NC(=O)[C@H](CC(N)=O)NC(=O)[C@H](CCCCN)NC1=O [[^125 I]Bio-6C-S14] ({Biotin-Ahx}-AGCKNFFWKT[Tyr(3-I)]TSC-OH; disulfide 3-14) | 755,020 CPM bound/mg membrane protein | 43,361 CPM bound/mg membrane protein | 0.3 nM | 63,490 CPM | 28,381 CPM | 16,228 CPM | 55% | 74% |  |  |  |  |  |  |  |  |
